Measurements from patent US20260158002A1, “APPLICATION OF COMPOSITION CONTAINING EDARAVONE AND DEXBORNEOL IN IMPROVING OR TREATING COGNITIVE IMPAIRMENT” (NEURODAWN PHARMACEUTICAL CO., LTD., priority 2021, published 2026).

How the values were obtained:
ICV-STZ model rats [1] = assay: Morris water maze test in rats of intracerebroventricular STZ-induced dementia; format: in vivo, rat; conditions: edaravone 6 mg/kg (plus dexborneol 0.8, 1.2 or 2.4 mg/kg), intraperitoneal, once daily
Description: The experimental animals were divided into […]: sham surgery group, model group, edaravone group (6 mg/kg), edaravone and dexborneol (7.5:1) composition (edaravone 6 mg/kg, dexborneol 0.8 mg/kg), edaravone and dexborneol (5:1) composition (edaravone 6 mg/kg, dexborneol 1.2 mg/kg), and edaravone and dexborneol (2.5:1) composition (edaravone 6 mg/kg, dexborneol 2.4 mg/kg). The animals in the model group and sham surgery groups were given the corresponding volume of blank solvent (8% propylene glycol), all administrations were intraperitoneal injection administrations, and the administration volume is 10 ml/kg.
In addition to the sham surgery group, animals with successful surgery were randomly assigned to the model group and administration groups in order. […]
This trial lasted for 4 days. The platform was fixed in the target quadrant (SE quadrant) during the trial, water entry was performed from the water entry points of the four quadrants, respectively, animals were gently placed in the water facing the sign on the pool wall during training, the time (escape latency) for the animal to find the platform was recorded, and then the animal was allowed to stay on the platform for 10 s. […]

5×FAD transgenic mice = assay: Brain slice electrophysiology test (hippocampal LTP) in 5×FAD transgenic mice; format: in vivo, mouse; conditions: brain slices after 16 weeks of administration; edaravone 6 mg/kg or composition 7.5 mg/kg i.p. once daily
Description: In the experiment, the animals were divided into 4 groups. Administration was performed on the mice in each group from 8 weeks of age. After 16 weeks of continuous daily administration, water maze and Y maze behavioral tests were performed. After the behavioral tests were completed, the animals were sacrificed, and brain slice electrophysiology and AD pathology within the brain were tested, including the test of Aβ plaques, biomarkers such as GFAP and Iba-1, p-Tau, etc.
Electrophysiological recording was performed after the behavioral test of mice was completed. After anesthesia, all mice were euthanized, the brain tissues were rapidly collected and stored in 4° C. oxygenated (95% O2/5% CO2) artificial cerebrospinal fluid (ACSF) (75 mM sucrose, 87 mM NaCl, 2.5 mM KCl), 1.25 mM NaH2PO4, 21.4 mM NaHCO3, 0.5 mM CaCl2, 7 mM MgCl2 and 20 mM glucose. Hippocampal slices were cut by a vibrating knife in 4° C. oxygenated ACSF, and in 32° C. oxygenated ACSF. Next, the slices were incubated at room temperature for 1 hour before recording. Hippocampal LTP was induced by two theta burst stimulations (TBS). Data acquisition and analysis were performed using Clampex and Clampfit 8.2 (Molecular Devices).
Data were expressed as Mean±SEM. […]

[2] = system: primary hippocampal neurons; conditions: cited from earlier work
[3] = system: rat model in which oligomerized Aβ1-40 is injected into the hippocampal dentate gyrus; conditions: edaravone 5 mg/kg at the same site with intracerebral Aβ injection; cited from earlier work
ICV-STZ model rats [4] = conditions: cited from earlier work
[5] = system: APP/PS1 transgenic mouse model; conditions: cited from earlier work
[6] = mice; cited from earlier work

**Q.** With `CC1=NN(c2ccccc2)C(=O)C1` [edaravone, 3-methyl-1-phenyl-2-pyrazolin-5-one] as the molecule, how does the “escape latency in water maze hidden platform trial, vs model group” value (ICV-STZ model rats [1]) read?
**A.** could significantly shorten the escape latency

**Q.** What about the “residence time in the target quadrant in water maze space probe trial, vs model group” value (ICV-STZ model rats [1]) of the same molecule?
**A.** significantly prolonged

**Q.** And the “restoration of hippocampal LTP, vs 5×FAD mouse group” value (5×FAD transgenic mice)?
**A.** no obvious restoration effect

**Q.** And the “H2O2- and glutamate-induced death of primary hippocampal neurons” value [2]?
**A.** capable of reducing H2O2— and glutamate-induced death of primary hippocampal neurons

**Q.** And the “spatial learning and memory in water maze” value [3]?
**A.** can significantly improve the spatial learning and memory of rats in water maze

**Q.** And the “spatial learning and memory (Morris water maze) and non-spatial long-term memory (step-down passive avoidance)” value (ICV-STZ model rats [4]; intraperitoneal 9 mg/kg/day for 14 consecutive days)?
**A.** can significantly improve the spatial learning and memory

**Q.** And the “cognitive function in water maze test and passive avoidance test” value (ICV-STZ model rats [4]; oral 1, 3 and 10 mg/kg/day for 28 consecutive days)?
**A.** can also improve the cognitive function of ICV-STZ rats in water maze test and passive avoidance test

**Q.** And the “deficits in the cognitive function in water maze test” value ([5]; APP/PS1 mice, 12.6 mg/kg intraperitoneal twice a week, prophylactic (3 to 9 months) and therapeutic (9 to 12 months))?
**A.** can improve the deficits in the cognitive function in water maze test

**Q.** And the “cognitive function of aged transgenic mice” value ([5]; APP/PS aged mice (14 to 17 months), oral with drinking water 8, 24 and 72 mg/kg/day)?
**A.** significantly improves the cognitive function of aged transgenic mice

**Q.** What about the “Aβ plaque deposition within the brain and cognitive function” value ([5]; mice aged 3-12 months, oral with drinking water 33.2 mg/kg/day) of the same molecule?
**A.** can also reduce Aβ plaque deposition within the brain and improve the cognitive function of mice

**Q.** What about the oral bioavailability [6] of the same molecule?
**A.** 38%
